Reference: paper PMC4640567, “Cinnamic Acid Bornyl Ester Derivatives from Valeriana wallichii Exhibit Antileishmanial In Vivo Activity in Leishmania major-Infected BALB/c Mice” (PLoS ONE, 2015)

Legend:
[1] = AlamarBlue cytotoxicity, BMDM; assay type: cell-based; conditions: bone marrow-derived macrophages (BMDM)
Experimental: BMDM were generated in complete RPMI medium as described previously. On day six, the cytotoxicity against 2 × 10^5 cells/ml was tested at increasing concentrations of compounds 1 and 2 for 48 h. Human embryonic kidney HEK 293 T cells (ATCC, Wesel, Germany) were cultured in Dulbecco´s Modified Eagle Medium (DMEM) (Life Technologies, Darmstadt, Germany), with 10% FCS (PAA Laboratories, Germany). According to the standard operating procedures (SOP) within the Collaborative Research Center 630 (SFB 630) 2 × 10^4 HEK 293 T cells/ml were tested at increasing concentrations of compounds 1 and 2 for 48 h. Human liver carcinoma HepG2 cells (ATCC) were cultured in RPMI medium (Gibco) with 10% FCS. 1 × 10^5 cells/ml HepG2 were tested at increasing concentrations of 1 and 2 for 72 h according to the SOPs. The AlamarBlue assay was performed as described above for L. major parasites.

L. major promastigotes [2] = assay: Diff-Quik staining and transmitted light microscopy, cell morphology; assay type: cell-based, Leishmania major; conditions: 122.7 μM
Experimental: (§1) L. major parasites harvested from blood agar cultures were washed twice with Dulbecco’s phosphate-buffered saline (DPBS; Invitrogen, Darmstadt, Germany) and centrifuged at 3.000 × g for 10 min. The pellet was suspended in RPMI 1640 medium at a final concentration of 1 × 10^8 cells/ml. Cells were treated with 1% DMSO, 122.7 μM miltefosine (1-hexadecylphorylcholine; apoptosis inducer), or 100 μM of the tested compounds 1 and 2 in a final volume of 200 μl in 96 well plates. Samples were incubated at 27°C in 5% CO2 for several time points between 30 min and 24 h. Transmitted light microscopic, transmission electron microscopic (TEM), and flow cytometric techniques were used to find phenotypic patterns caused by the treatment with the tested compounds.
After incubation for 30 min, 1 h, 2 h, 4 h, and 24 h in the presence of the tested compounds 1 and 2, promastigotes were harvested and centrifuged in a Cytospin 3 centrifuge (Shandon, Frankfurt, Germany) on microscope slides at 253 × g for 5 min at room temperature (RT). Cytospin preparations of cells were stained using the Differential Quick Stain (Diff-Quik) dye (Medion Diagnostics AG, Duedingen, Switzerland), according to the manufacturers’ protocol with some modifications. Diff-Quik stains the leishmanial nuclei and the kinetoplasts dark purple and the cytoplasm light purple allowing the observation of phenotypic changes within the parasite. Briefly, air-dried cells were fixed by dipping the slides 5 times for 3 seconds in fixative solution. Subsequently the slides were stained with Solution I following Solution II (from Diff-Quik kit) and air-dried between each staining steps. Finally, the samples were rapidly dipped once in ultra-pure water (produced by a TKA purification system apparatus, Niederelbert, Germany) to remove excessive staining solutions. The air-dried cells were analyzed by transmitted light microscopy under a 50× objective on a Nikon ECLIPSE 50i microscope equipped with a digital camera (Nikon, Tokyo, Japan). The images were processed using NIS Elements D software (Nikon).

L. major promastigotes [3] = assay: Annexin V / propidium iodide flow cytometry, cell death phenotype; assay type: cell-based, Leishmania major; conditions: 122.7 μM
Experimental: as §1
The loss of membrane integrity and translocation of phosphatidylserine (PS) to the outside of the cellular membrane can be determined by annexin V (AV) and propidium iodide (PI) staining. Double staining with AV-fluorescein isothiocyanate (FITC) and PI during flow cytometry analysis leads to discrimination between four populations: double negatives or alive cells (AV^-/PI^-), double positive or late necrotic/late apoptotic cells (AV^+/PI^+), PI-positive and AV-negative or early necrotic cells (AV^-/PI^+), and PI-negative and AV-positive or early apoptotic cells (AV^+/PI^-).
Parasites were harvested after incubation for 6 h, 10 h, and 24 h in the presence of compounds 1, 2 and miltefosine (Cayman Chemical Company, MI, USA), respectively, the latter serving as positive control for the induction of apoptotic cell death. DMSO was used as solvent control. Cell staining was performed using an AV-FITC Apoptosis detection kit (Sigma-Aldrich, Saint Louis, MO, USA). Cells were harvested, washed and suspended in 500 μL of binding buffer, 5 μL of AV-FITC and 10 μl of PI. The cells were incubated for 10 min in the dark at RT. Finally, stained samples were immediately analyzed by flow cytometry using MACSQuant analyzer or a flow cytometer (Becton Dickinson, San José, CA, USA).

L. major promastigotes [4] = test system: L. major promastigotes; set-up: method as in PMID 24473204; conditions: positive control; cited from earlier work
L. major amastigotes = test system: L. major amastigotes; set-up: method as in PMID 24473204; conditions: positive control; cited from earlier work
L. major promastigotes [5] = test system: L. major promastigotes; set-up: method as in PMID 25834987; conditions: cited from earlier work

CCCCCCCCCCCCCCCCOP(=O)([O-])OCC[N+](C)(C)C [Miltefosine, 1-hexadecylphorylcholine, reference compound]
IC50 at 48 h [1]: 65.5 µM | Time after which morphological changes and cell disruption were promoted (L. major promastigotes [2]): 2 h | LL: live cells (AV-/PI-) (L. major promastigotes [3]; 6 h): 35.5% | LR: early apoptotic cells (AV+/PI-) (L. major promastigotes [3]; 6 h): 8.2% | UL: early necrotic cells (AV-/PI+) (L. major promastigotes [3]; 6 h): 11.8% | UR: necrotic/late apoptotic cells (AV+/PI+) (L. major promastigotes [3]; 6 h): 44.5% | LR: early apoptotic cells (AV+/PI-) (L. major promastigotes [3]; 6 h, listed as miltefosine): 8% | UR: necrotic/late apoptotic cells (AV+/PI+) (L. major promastigotes [3]; 6 h, listed as miltefosine): 45% | LL: live cells (AV-/PI-) (L. major promastigotes [3]; 10 h): 15.9% | LR: early apoptotic cells (AV+/PI-) (L. major promastigotes [3]; 10 h): 13.2% | UL: early necrotic cells (AV-/PI+) (L. major promastigotes [3]; 10 h): 11.3% | UR: necrotic/late apoptotic cells (AV+/PI+) (L. major promastigotes [3]; 10 h): 59.6% | LL: live cells (AV-/PI-) (L. major promastigotes [3]; 24 h): 6.3% | LR: early apoptotic cells (AV+/PI-) (L. major promastigotes [3]; 24 h): 13.0% | UL: early necrotic cells (AV-/PI+) (L. major promastigotes [3]; 24 h): 5.5% | UR: necrotic/late apoptotic cells (AV+/PI+) (L. major promastigotes [3]; 24 h): 75.2% | LR: early apoptotic cells (AV+/PI-) (L. major promastigotes [3]; 24 h, listed as miltefosine): 13% | UR: necrotic/late apoptotic cells (AV+/PI+) (L. major promastigotes [3]; 24 h, listed as miltefosine): 75% | Promastigotes with affinity of the parasitic surface towards AV (L. major promastigotes [3]; within 24 h): 88% | IC50 (L. major promastigotes [4]): 36.2 µM | IC50 (L. major amastigotes): 33 µM

CC1(C)C2CCC1(C)C(OC(=O)/C=C/c1ccc(O)c(O)c1)C2 (stereo not shown) [caffeic acid bornyl ester]
Antileishmanial activity against L. major promastigotes (L. major promastigotes [5]): good antileishmanial activity
